Measured values: patent publication US20080064735A1, “Method for controlling harmful organisms in crops of useful plants” (priority 2001, published 2008)

Tested on: Plutella xylostella
Experiment: Plutella xylostella greenhouse spray test on cauliflower and Bt cauliflower (cry9C)
Format: in vivo
Procedure: Seven-week-old cauliflower plants (ordinary cauliflower, variety: Marner Allfrüh) and Bt cauliflower ([…], contains cry9C) were sprayed with the test insecticides with the aid of a track sprayer (200 l/ha). After drying, each of the plants was infected with 5 L2 larvae and 5 L3 larvae of Plutella xylostella. After 2, 4 and 7 days (DAA), feeding damage and mortality were scored. The test was carried out in a greenhouse at 23° C. and a relative atmospheric humidity of 60%.

[1] = 10 g active substance/ha, 2 DAA, Bt cauliflower
[2] = 10 g active substance/ha, 2 DAA, cauliflower
[3] = 10 g active substance/ha, 4 DAA, Bt cauliflower
[4] = 10 g active substance/ha, 4 DAA, cauliflower
[5] = 10 g active substance/ha, 7 DAA, Bt cauliflower
[6] = 10 g active substance/ha, 7 DAA, cauliflower
[7] = 30 g active substance/ha, 2 DAA, Bt cauliflower
[8] = 30 g active substance/ha, 2 DAA, cauliflower
[9] = 30 g active substance/ha, 4 DAA, Bt cauliflower
[10] = 30 g active substance/ha, 4 DAA, cauliflower
[11] = 30 g active substance/ha, 7 DAA, Bt cauliflower
[12] = 30 g active substance/ha, 7 DAA, cauliflower
[13] = 1 g active substance/ha, 2 DAA, Bt cauliflower
[14] = 1 g active substance/ha, 2 DAA, cauliflower
[15] = 1 g active substance/ha, 4 DAA, Bt cauliflower
[16] = 1 g active substance/ha, 4 DAA, cauliflower
[17] = 1 g active substance/ha, 7 DAA, Bt cauliflower
[18] = 1 g active substance/ha, 7 DAA, cauliflower
[19] = 3 g active substance/ha, 2 DAA, Bt cauliflower
[20] = 3 g active substance/ha, 2 DAA, cauliflower
[21] = 3 g active substance/ha, 4 DAA, Bt cauliflower
[22] = 3 g active substance/ha, 4 DAA, cauliflower
[23] = 3 g active substance/ha, 7 DAA, Bt cauliflower
[24] = 3 g active substance/ha, 7 DAA, cauliflower
[25] = 100 g active substance/ha, 2 DAA, Bt cauliflower
[26] = 100 g active substance/ha, 2 DAA, cauliflower
[27] = 100 g active substance/ha, 4 DAA, Bt cauliflower
[28] = 100 g active substance/ha, 4 DAA, cauliflower
[29] = 100 g active substance/ha, 7 DAA, Bt cauliflower
[30] = 100 g active substance/ha, 7 DAA, cauliflower

C/C(=N\C#N)N(C)Cc1ccc(Cl)nc1 [Acetamiprid]
% feeding damage [1]: 0%
% mortality [1]: 100%
% feeding damage [2]: 10%
% mortality [2]: 0%
% feeding damage [3]: 0%
% mortality [3]: 100%
% feeding damage [4]: 12%
% mortality [4]: 0%
% feeding damage [5]: 0%
% mortality [5]: 100%
% feeding damage [6]: 15%
% mortality [6]: 0%
% feeding damage [7]: 0%
% mortality [7]: 100%
% feeding damage [8]: 10%
% mortality [8]: 0%
% feeding damage [9]: 0%
% mortality [9]: 100%
% feeding damage [10]: 12%
% mortality [10]: 0%
% feeding damage [11]: 0%
% mortality [11]: 100%
% feeding damage [12]: 15%
% mortality [12]: 0%

CS/C(C)=N\OC(=O)N(C)SN(C)C(=O)O/N=C(\C)SC [Thiodicarb]
% feeding damage [13]: 0%
% mortality [13]: 100%
% feeding damage [14]: 10%
% mortality [14]: 0%
% feeding damage [15]: 0%
% mortality [15]: 100%
% feeding damage [16]: 10%
% mortality [16]: 0%
% feeding damage [17]: 0%
% mortality [17]: 100%
% feeding damage [18]: 15%
% mortality [18]: 0%
% feeding damage [19]: 0%
% mortality [19]: 100%
% feeding damage [20]: 10%
% mortality [20]: 0%
% feeding damage [21]: 0%
% mortality [21]: 100%
% feeding damage [22]: 10%
% mortality [22]: 0%
% feeding damage [23]: 0%
% mortality [23]: 100%
% feeding damage [24]: 15%
% mortality [24]: 0%
% feeding damage [1]: 0%
% mortality [1]: 90%
% feeding damage [2]: 10%
% mortality [2]: 0%
% feeding damage [3]: 0%
% mortality [3]: 100%
% feeding damage [4]: 10%
% mortality [4]: 0%
% feeding damage [5]: 0%
% mortality [5]: 100%
% feeding damage [6]: 15%
% mortality [6]: 0%
% feeding damage [7]: 0%
% mortality [7]: 100%
% feeding damage [8]: 10%
% mortality [8]: 0%
% feeding damage [9]: 0%
% mortality [9]: 100%
% feeding damage [10]: 10%
% mortality [10]: 0%
% feeding damage [11]: 0%
% mortality [11]: 100%
% feeding damage [12]: 15%
% mortality [12]: 0%
% feeding damage [25]: 0%
% mortality [25]: 100%
% feeding damage [26]: 10%
% mortality [26]: 0%
% feeding damage [27]: 0%
% mortality [27]: 100%
% feeding damage [28]: 10%
% mortality [28]: 0%
% feeding damage [29]: 0%
% mortality [29]: 100%
% feeding damage [30]: 10%
% mortality [30]: 0%

CCc1nn(C)c(C(=O)NCc2ccc(Oc3ccc(C)cc3)cc2)c1Cl [Tolfenpyrad]
% feeding damage [19]: 3%
% mortality [19]: 10%
% feeding damage [20]: 10%
% mortality [20]: 0%
% feeding damage [21]: 10%
% mortality [21]: 30%
% feeding damage [22]: 10%
% mortality [22]: 0%
% feeding damage [23]: 10%
% mortality [23]: 50%
% feeding damage [24]: 10%
% mortality [24]: 0%
% feeding damage [1]: 10%
% mortality [1]: 0%
% feeding damage [2]: 10%
% mortality [2]: 0%
% feeding damage [3]: 10%
% mortality [3]: 50%
% feeding damage [4]: 10%
% mortality [4]: 0%
% feeding damage [5]: 10%
% mortality [5]: 50%
% feeding damage [6]: 10%
% mortality [6]: 0%
% feeding damage [7]: 0%
% mortality [7]: 60%
% feeding damage [8]: 10%
% mortality [8]: 0%
% feeding damage [9]: 0%
% mortality [9]: 100%
% feeding damage [10]: 10%
% mortality [10]: 0%
% feeding damage [11]: 0%
% mortality [11]: 100%
% feeding damage [12]: 10%
% mortality [12]: 0%
% feeding damage [25]: 10%
% mortality [25]: 20%
% feeding damage [26]: 5%
% mortality [26]: 0%
% feeding damage [27]: 10%
% mortality [27]: 100%
% feeding damage [28]: 5%
% mortality [28]: 20%
% feeding damage [29]: 10%
% mortality [29]: 100%
% feeding damage [30]: 5%
% mortality [30]: 0%

N#Cc1nn(-c2c(Cl)cc(C(F)(F)F)cc2Cl)c(N)c1[S+]([O-])C(F)(F)F (stereo not drawn) [Fipronil]
% feeding damage [13]: 0%
% mortality [13]: 70%
% feeding damage [14]: 10%
% mortality [14]: 0%
% feeding damage [15]: 0%
% mortality [15]: 100%
% feeding damage [16]: 10%
% mortality [16]: 0%
% feeding damage [17]: 0%
% mortality [17]: 100%
% feeding damage [18]: 12%
% mortality [18]: 0%
% feeding damage [19]: 0%
% mortality [19]: 100%
% feeding damage [20]: 10%
% mortality [20]: 20%
% feeding damage [21]: 0%
% mortality [21]: 100%
% feeding damage [22]: 10%
% mortality [22]: 20%
% feeding damage [23]: 0%
% mortality [23]: 100%
% feeding damage [24]: 12%
% mortality [24]: 20%
% feeding damage [1]: 0%
% mortality [1]: 100%
% feeding damage [2]: 8%
% mortality [2]: 20%
% feeding damage [3]: 0%
% mortality [3]: 100%
% feeding damage [4]: 8%
% mortality [4]: 20%
% feeding damage [5]: 0%
% mortality [5]: 100%
% feeding damage [6]: 10%
% mortality [6]: 50%
% feeding damage [7]: 0%
% mortality [7]: 100%
% feeding damage [8]: 4%
% mortality [8]: 70%
% feeding damage [9]: 0%
% mortality [9]: 100%
% feeding damage [10]: 5%
% mortality [10]: 100%
% feeding damage [11]: 0%
% mortality [11]: 100%
% feeding damage [12]: 5%
% mortality [12]: 100%
% feeding damage [25]: 0%
% mortality [25]: 100%
% feeding damage [26]: 1%
% mortality [26]: 100%
% feeding damage [27]: 0%
% mortality [27]: 100%
% feeding damage [28]: 1%
% mortality [28]: 100%
% feeding damage [29]: 0%
% mortality [29]: 100%
% feeding damage [30]: 1%
% mortality [30]: 100%
